Read-outs that look alike come from different tables or passages of the source.
What was measured:
[1] = electrical conductivity measurement of the solution; format: physicochemical
Method: (§1) The peroxide concentration is determined by a potassium permanganate titration procedure and the devices used for the measurement of pH, ORP and conductivity are a WTW 537, a Testo 230 ORP and a HANNA EC device, respectively.

[2] = pH measurement of the solution; format: physicochemical
Method: as §1

[3] = oxidation-reduction potential (ORP) measurement of the solution; format: physicochemical
Method: as §1

E. coli = assay: test of corona treated solution against strains of bacteria (Example 3); format: cell-based; details: after 5 minutes
Method: (§2) The corona treated solution was then tested against several strains of bacteria and compared to untreated solutions of 1% hydrogen peroxide.

[4] = system: Corynebacterium minitissium; assay: as above; format: cell-based; details: after 5 minutes
Method: as §2

Lysteria = assay: as above; format: cell-based; details: after 5 minutes
Method: as §2

Staphylococcus aureus = assay: bactericidal suspension test conform EN 1040 (Example 1); format: cell-based
Method: (§3) In a controlled bactericidal suspension test conform European Norm for testing of basic bactericidal activity of chemical disinfectants and antiseptics EN 1040, a 1 ml McFarland standard 0.5 (10^8 microorganisms per ml) was mixed 1:8 with the activated peroxide solution and 1 ml milli-Q water. After 10 minutes, Staphylococcus aureus was killed 100%, while Escherichia coli, Salmonella typhimurium, Rhodotorula rubra and Pseudomonas aeruginosa were all killed 100% already after 5 minutes. A 100% kill typically is shown by at least a log 5 reduction.

Pseudomonas aeruginosa = assay: as above; format: cell-based; details: after 5 minutes
Method: as §3

Salmonella typhimurium = assay: as above; format: cell-based; details: after 5 minutes
Method: as §3

Rhodotorula rubra = assay: as above; format: cell-based; details: after 5 minutes
Method: as §3

Escherichia coli = assay: as above; format: cell-based; details: after 5 minutes
Method: as §3

OO [Example 3 starting solution, hydrogen peroxide]
conductivity [1]: 17.8 microSiemens/cm
pH of the solution [2]: 4.5
ORP of the solution [3]: 380 mV

OO [standard 1% hydrogen peroxide, hydrogen peroxide]
conductivity ([1]; listed as 1% H2O2): 30 μS/cm
reduced with log (E. coli): no countable reduction
reduced with log [4]: no countable reduction
reduced with log (Lysteria): no countable reduction
pH of the solution ([2]; listed as 1% H2O2): approximately 4.4
ORP of the solution ([3]; listed as 1% H2O2): 390 mV

OO [0.1% H2O2, hydrogen peroxide]
conductivity [1]: 20 μS/cm
pH of the solution [2]: approximately 4.9
ORP of the solution [3]: 355 mV

OO [1.6% common hydrogen peroxide solution, hydrogen peroxide]
reduction (Staphylococcus aureus; after 5 minutes): none
reduction (Staphylococcus aureus; after 20 minutes): 50%
killed (Pseudomonas aeruginosa): < 100%
killed / reduction (Salmonella typhimurium): 70%
killed (Rhodotorula rubra): < 100%
killed (Escherichia coli): < 100%

OO [5% H2O2, hydrogen peroxide]
conductivity [1]: 90 μS/cm
pH of the solution [2]: approximately 3.7
ORP of the solution [3]: 428 mV

OO [0.5% H2O2, hydrogen peroxide]
conductivity [1]: approximately 21 μS/cm
pH of the solution [2]: approximately 4.6
ORP of the solution [3]: 374 mV

OO [3% H2O2, hydrogen peroxide]
conductivity [1]: 60 μS/cm
pH of the solution [2]: approximately 3.9
ORP of the solution [3]: 411 mV

OO [Example 1 solution before activation, hydrogen peroxide]
pH of the solution [2]: 5.8

OO [10% H2O2, hydrogen peroxide]
conductivity [1]: 110 μS/cm
pH of the solution [2]: approximately 3.3
ORP of the solution [3]: 446 mV
